Source: publication PMC3955222 (Chembiochem : a European journal of chemical biology, 2013)

Target: T1, CODH ICh (Carboxydothermus hydrogenoformans, UniProt P59934)
T1 sequence (P59934 2-636): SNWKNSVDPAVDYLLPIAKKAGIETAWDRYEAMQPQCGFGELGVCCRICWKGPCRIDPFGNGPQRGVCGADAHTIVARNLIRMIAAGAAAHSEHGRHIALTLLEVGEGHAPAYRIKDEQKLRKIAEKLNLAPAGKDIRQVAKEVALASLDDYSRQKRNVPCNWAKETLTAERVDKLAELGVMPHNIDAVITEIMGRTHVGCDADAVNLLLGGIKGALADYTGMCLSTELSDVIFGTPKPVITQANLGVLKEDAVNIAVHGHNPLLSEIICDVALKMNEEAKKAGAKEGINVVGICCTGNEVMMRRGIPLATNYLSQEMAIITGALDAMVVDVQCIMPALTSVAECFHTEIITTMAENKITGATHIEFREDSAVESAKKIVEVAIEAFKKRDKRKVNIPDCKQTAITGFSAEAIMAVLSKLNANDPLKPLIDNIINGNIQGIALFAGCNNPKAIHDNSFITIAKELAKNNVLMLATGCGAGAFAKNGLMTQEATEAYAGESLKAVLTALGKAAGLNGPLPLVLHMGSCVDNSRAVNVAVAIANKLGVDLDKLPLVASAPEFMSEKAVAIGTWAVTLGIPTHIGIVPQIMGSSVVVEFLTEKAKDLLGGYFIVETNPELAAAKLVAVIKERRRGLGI
Format: biochemical

N#CO [cyanate]
chronoamperometry, inactivation half-time at 6.7 mM cyanate: ~ 90 seconds
